From PubChem BioAssay (NCI)
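48-hour exposure; five concentrations; linearly interpolated endpoints. Here, GI50 denotes the concentration required for 50% inhibition of growth. Definition used: TGI = concentration required for complete inhibition of growth.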

Experiments:
Experiment in all cases: NCI tumour cell line growth inhibition, 48 h; in the data active means GI50 below about 0.43 µM; inactive means the rest
HOP-62 NSCLC = system: HOP-62 NSCLC
SK-MEL-28 melanoma = system: SK-MEL-28 melanoma
MALME-3M melanoma = system: MALME-3M melanoma
MCF7 breast = system: MCF7 breast
HL-60(TB) leukemia = system: HL-60(TB) leukemia
SK-OV-3 ovarian = system: SK-OV-3 ovarian
K-562 leukemia = system: K-562 leukemia
CCRF-CEM leukemia = system: CCRF-CEM leukemia
SNB-19 CNS = system: SNB-19 CNS
UO-31 renal = system: UO-31 renal
SNB-75 CNS = system: SNB-75 CNS
NCI-H460 lung = system: NCI-H460 lung
786-0 renal = system: 786-0 renal
HCT-116 colon = system: HCT-116 colon
IGROV1 ovarian = system: IGROV1 ovarian
OVCAR-5 ovarian = system: OVCAR-5 ovarian
NCI-H226 lung = system: NCI-H226 lung
ACHN renal = system: ACHN renal
U251 CNS = system: U251 CNS
RPMI-8226 leukemia = system: RPMI-8226 leukemia
EKVX NSCLC = system: EKVX NSCLC
KM12 colon = system: KM12 colon
HCC-2998 colon = system: HCC-2998 colon
HCT-15 colon = system: HCT-15 colon
OVCAR-4 ovarian = system: OVCAR-4 ovarian
HOP-92 NSCLC = system: HOP-92 NSCLC
LOX IMVI melanoma = system: LOX IMVI melanoma
NCI/ADR-RES ovarian = system: NCI/ADR-RES ovarian
CAKI-1 renal = system: CAKI-1 renal
UACC-257 melanoma = system: UACC-257 melanoma
T-47D breast = system: T-47D breast
HT29 colon = system: HT29 colon
M14 melanoma = system: M14 melanoma
SF-295 CNS = system: SF-295 CNS
COLO 205 colon = system: COLO 205 colon
MDA-MB-468 breast = system: MDA-MB-468 breast
MDA-MB-231 breast = system: MDA-MB-231 breast
NCI-H23 lung = system: NCI-H23 lung
DU-145 prostate = system: DU-145 prostate
SN12C renal = system: SN12C renal
BT-549 breast = system: BT-549 breast
SF-539 CNS = system: SF-539 CNS
HS 578T breast = system: HS 578T breast
TK-10 renal = system: TK-10 renal
SK-MEL-5 melanoma = system: SK-MEL-5 melanoma
MOLT-4 leukemia = system: MOLT-4 leukemia
SW-620 colon = system: SW-620 colon
MDA-MB-435 = system: MDA-MB-435
SF-268 CNS = system: SF-268 CNS
SK-MEL-2 melanoma = system: SK-MEL-2 melanoma
RXF 393 renal = system: RXF 393 renal
UACC-62 melanoma = system: UACC-62 melanoma
NCI-H522 lung = system: NCI-H522 lung
OVCAR-3 ovarian = system: OVCAR-3 ovarian
A549 NSCLC = system: A549 NSCLC
PC-3 prostate = system: PC-3 prostate
OVCAR-8 ovarian = system: OVCAR-8 ovarian

CN(C)c1nc(NCCNS(=O)(=O)c2ccc(C3=Nc4c(N)nc(N)nc4NC(c4ccccc4)C3)cc2)nc(Nc2ccc(F)cc2)n1 (centres undefined)
9.96 µM: TGI (HOP-92 NSCLC)
13.7 µM: TGI (MDA-MB-468 breast)
> 100 µM: TGI (HOP-62 NSCLC) | TGI (SK-MEL-28 melanoma) | TGI (MALME-3M melanoma) | TGI (HL-60(TB) leukemia) | TGI (SK-OV-3 ovarian) | TGI (K-562 leukemia) | TGI (CCRF-CEM leukemia) | TGI (SNB-19 CNS) | TGI (UO-31 renal) | TGI (SNB-75 CNS) | TGI (NCI-H460 lung) | TGI (786-0 renal) | TGI (HCT-116 colon) | TGI (IGROV1 ovarian) | TGI (OVCAR-5 ovarian) | TGI (NCI-H226 lung) | TGI (ACHN renal) | TGI (U251 CNS) | TGI (RPMI-8226 leukemia) | TGI (EKVX NSCLC) | TGI (KM12 colon) | TGI (HCC-2998 colon) | TGI (HCT-15 colon) | TGI (OVCAR-4 ovarian) | TGI (NCI/ADR-RES ovarian) | TGI (CAKI-1 renal) | TGI (UACC-257 melanoma) | TGI (T-47D breast) | TGI (HT29 colon) | TGI (M14 melanoma) | TGI (SF-295 CNS) | TGI (COLO 205 colon) | TGI (NCI-H23 lung) | TGI (DU-145 prostate) | TGI (SN12C renal) | TGI (BT-549 breast) | TGI (HS 578T breast) | TGI (TK-10 renal) | TGI (MOLT-4 leukemia) | TGI (SW-620 colon) | TGI (MDA-MB-435) | TGI (SF-268 CNS) | TGI (SK-MEL-2 melanoma) | TGI (UACC-62 melanoma) | TGI (NCI-H522 lung) | TGI (OVCAR-3 ovarian) | TGI (A549 NSCLC) | TGI (PC-3 prostate) | TGI (OVCAR-8 ovarian)
8.95 µM: TGI (RXF 393 renal)
85.5 µM: TGI (MCF7 breast)
63.8 µM: TGI (SF-539 CNS)
inactive: GI50 (HOP-62 NSCLC) 99.7 µM | GI50 (SK-MEL-28 melanoma) > 100 µM | GI50 (MALME-3M melanoma) 7.34 µM | GI50 (MCF7 breast) 3.85 µM | GI50 (HL-60(TB) leukemia) 4.24 µM | GI50 (SK-OV-3 ovarian) > 100 µM | GI50 (K-562 leukemia) 4.33 µM | GI50 (CCRF-CEM leukemia) 4.02 µM | GI50 (SNB-19 CNS) 21.8 µM | GI50 (UO-31 renal) > 100 µM | GI50 (SNB-75 CNS) 3.58 µM | GI50 (NCI-H460 lung) 6.49 µM | GI50 (786-0 renal) 7.88 µM | GI50 (HCT-116 colon) 7.37 µM | GI50 (IGROV1 ovarian) 5.76 µM | GI50 (OVCAR-5 ovarian) > 100 µM | GI50 (NCI-H226 lung) > 100 µM | GI50 (ACHN renal) > 100 µM | GI50 (U251 CNS) 18.4 µM | GI50 (RPMI-8226 leukemia) 3.32 µM | GI50 (EKVX NSCLC) 6.65 µM | GI50 (KM12 colon) 8.8 µM | GI50 (HCC-2998 colon) 11.7 µM | GI50 (HCT-15 colon) > 100 µM | GI50 (OVCAR-4 ovarian) 74.6 µM | GI50 (HOP-92 NSCLC) 2.18 µM | GI50 (LOX IMVI melanoma) 9.96 µM | GI50 (NCI/ADR-RES ovarian) > 100 µM | GI50 (CAKI-1 renal) 9.73 µM | GI50 (UACC-257 melanoma) 87.2 µM | GI50 (T-47D breast) 5.12 µM | GI50 (HT29 colon) 5.32 µM | GI50 (M14 melanoma) 24.4 µM | GI50 (SF-295 CNS) 9.5 µM | GI50 (COLO 205 colon) 16.4 µM | GI50 (MDA-MB-468 breast) 3.37 µM | GI50 (MDA-MB-231 breast) 6.16 µM | GI50 (NCI-H23 lung) > 100 µM | GI50 (DU-145 prostate) > 100 µM | GI50 (SN12C renal) 7.83 µM | GI50 (BT-549 breast) 8.82 µM | GI50 (SF-539 CNS) 12 µM | GI50 (HS 578T breast) 6.43 µM | GI50 (TK-10 renal) > 100 µM | GI50 (SK-MEL-5 melanoma) 5.81 µM | GI50 (MOLT-4 leukemia) 3.11 µM | GI50 (SW-620 colon) 40.4 µM | GI50 (MDA-MB-435) 15 µM | GI50 (SF-268 CNS) 9.85 µM | GI50 (SK-MEL-2 melanoma) 28.5 µM | GI50 (RXF 393 renal) 2.55 µM | GI50 (UACC-62 melanoma) 31.5 µM | GI50 (NCI-H522 lung) 77.4 µM | GI50 (OVCAR-3 ovarian) 69.3 µM | GI50 (A549 NSCLC) > 100 µM | GI50 (PC-3 prostate) 3.84 µM | GI50 (OVCAR-8 ovarian) 61.4 µM
25.7 µM: TGI (LOX IMVI melanoma)
20.5 µM: TGI (SK-MEL-5 melanoma)
67.5 µM: TGI (MDA-MB-231 breast)
